Columns and labels:
SSCs [1] = conditions: mice, no transplantation; cited from earlier work
TECs [2] = experiment: Microvessel density (CD31 immunostaining) in testes sections from busulfan-treated mice; format: in vivo, mouse; conditions: wild-type mice, 5 weeks after busulfan vs vehicle
Experimental: Testes were dissected from male mice were cryoprotected overnight in 20% (wt vol^−1) sucrose then frozen in OCT (Tissue-Tek). Testis sections (10 or 30 m) were blocked (5% normal goat serum and 0.1% bovine serum albumin in 0.1% PBS-T) for 1 hour and washed in 0.1% PBS-T. Primary antibodies: anti-CD31 rat-pAb (1:50; BD science, Cat: 550274), anti-PLZF rabbit-polyclonal Ab (1:50; Santa Cruz, Cat: 22839), anti-DDX4 rabbit pAb (1:200; Abcam, Cat: 13840), anti-Sox9 rabbit pAb (1:200; Millipore, Cat: ABE579), anti-GDNF rabbit polyclonal Ab (1:50; Santa Cruz, Cat: SC328) were diluted in blocking buffer and incubated for 2 hours at RT, then incubated with either anti-mouse Alexa 594 (1:1000, Thermo Fischer, Cat: A110323) or anti-rabbit Alexa 488 (1:1000, Thermo Fischer, Cat: A32723) at RT for 30 minutes. Sections were stained with for 1 min to detect nuclei. […] Digital images were analyzed for the area and density of endothelial cell markers, germline stem cell markers and GDNF by counting 5 random 20× fields per testis section.
Mice were sacrificed 5-6 weeks after Busulfan treatment and tissues were fixed in paraformaldehyde overnight and then embedded in paraffin. […] After all cross sectional areas were counted, the field was randomly moved and all cross-sectional tubules counted in that field. This was continuing until the 10-20 tubules were counted per slide. […]

TECs [3] = experiment: TECs proliferation and apoptosis assays; format: cell-based, mouse; conditions: TECs in culture, busulfan 800 μM vs DMSO
Experimental: TECs Proliferation and Apoptosis Assays
5×10^3 testicular ECs per well were plated on 8-chamber slide (LabteK) coated with 0.1% gelatin. Busulfan (800 μM) or DMSO were added to each well 24 hours after seeding and cultured for 72 or 96 hours. 10 μM BrdU (BD Pharmingen™) was added to media 72 hours after busulfan treatment, then incubated for 2 hours. Samples were stained with anti-BrdU (1:50; Invitrogen), anti-γ-H2AX (1:400; Millipore) and anti-cleaved caspase 3 (1:400; Cell Signaling). BrdU^+ cells in 10 random high-powered fields were counted and statistics were analyzed using Graph Pad Prism. Each condition was performed in triplicate.

SSCs [4] = experiment: Restoration of spermatogenesis after busulfan exposure; format: in vivo, mouse; conditions: mice, no transplantation
GDNF = experiment: Western blot of GDNF expression in whole testis lysates; format: in vivo, mouse; conditions: 5 weeks after busulfan vs PBS
Text: Testes harvested from vehicle or busulfan treated-wild type mice were homogenized in RIPA buffer and protein concentration quantified by the BioRad DC Protein Assay. Twenty-five ug of protein per sample were separated by SDS-PAGE, probed with anti-GDNF rabbit polyclonal antibody (1:500; Santa Cruz, Cat: 13147) or anti-cleaved Caspase 3 rabbit polyclonal antibody (1:1000; Cell Signaling, Cat: 9664) and detected by chemiluminescence (ECL, Amersham). Blots were stripped and re-probed with β-actin as a loading control. See Supplementary material for uncropped blots.
FIG. 1. a. Quantication of Gdnf mRNA in Sertoli cells and TECs, and GDNF levels by ELISA in conditioned media from Sertoli cells or TECs without or with FGF-2 (20 ngml-1) treatment for 3 days. b. Murine GFP+Thy1.2+SSCs were co-cultured with TECs or testicular cells depleted of CD31+ TECs but containing all other cell populations in the testes. After 3 weeks, SSC colonies were absent in CD31-depleted testicular cell co-cultures with Sertoli and PTM cells present, while a signicant number of GFP+ Thy1.2+ SSC colonies were present in co-cultures with TECs alone. c. Immunouorescence staining for CD31 (for ECs) on testis sections from wildtype mice 5 weeks after vehicle or busulfan treatment. […] Quantification of MVD and vessel length is shown on the right, n=3.

- microvessel density in testes sections (TECs [2]): significant decrease
- time required for restoration of murine spermatogenesis post-busulfan treatment (SSCs [4]): 6 months
- testis GDNF expression (GDNF): global decrease
SMILES: CS(=O)(=O)OCCCCOS(C)(=O)=O [busulfan]
- time to restoration of spermatogenesis following exposure to busulfan (SSCs [1]): 30-36 weeks
- TEC apoptosis (cleaved caspase 3) (TECs [3]; 72 or 96 hours): increased apoptosis
- TEC proliferation (BrdU) (TECs [3]; 72 hours): decreased proliferation

From patent publication US20210386792A1, “A METHOD FOR INCREASING POPULATION OF SPERMATOGONIAL STEM CELLS” (priority 2018, published 2021)
